Experimental data from ChEMBL document CHEMBL1201862, “PubChem BioAssay data set” (2004).
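Grown in 96-well plates, cells were treated for 48 hours with each compound at five concentrations. Insufficient inhibition: endpoint recorded as highest concentration tested. The concentration for 50% growth inhibition is given as GI50.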 Activity calls are given as the source filed them. Rule as the data show it: active = GI50 up to about 1.1 µM and inactive = higher.

Experiments:
Experiment in all cases: NCI-60 cell line screen, 48 h
[1] = system: SW-620
[2] = system: NCI-H460
[3] = system: OVCAR-5
[4] = system: UACC-62
[5] = system: SK-MEL-28
[6] = system: A549
[7] = system: SK-MEL-2
[8] = system: CCRF-CEM
[9] = system: CAKI-1
[10] = system: A498
[11] = system: SNB-19
[12] = system: RPMI-8226
[13] = system: HT-29
[14] = system: K562
[15] = system: HOP-92
[16] = system: SF-539
[17] = system: NCI-H226

Measured: GI50

COc1ccc(C=C2C(=O)OC(C)(C)OC2=O)cc1OC
inactive: [1] > 100 µM | [2] > 100 µM | [3] > 100 µM | [4] > 100 µM | [5] > 100 µM | [6] > 100 µM | [7] > 100 µM | [8] > 100 µM | [9] > 100 µM | [10] > 100 µM | [11] > 100 µM | [12] > 100 µM | [13] > 100 µM | [14] > 100 µM

Cc1ccc(NC(=O)C(=O)Cc2nc3ccccc3o2)c(C)c1
inactive: [15] > 100 µM | [1] > 100 µM | [2] > 100 µM | [3] > 100 µM | [16] > 100 µM | [4] > 100 µM | [5] > 100 µM | [6] > 100 µM | [7] > 100 µM | [9] > 100 µM | [11] > 100 µM | [12] > 100 µM | [13] > 100 µM | [17] > 100 µM | [14] > 100 µM

COc1cc(C(C#N)NNc2nc(C)cc(O)n2)cc(OC)c1OC (configuration not stated)
inactive: [15] 51.6 µM | [1] > 100 µM | [2] > 100 µM | [3] > 100 µM | [16] > 100 µM | [4] > 100 µM | [5] > 100 µM | [6] > 100 µM | [7] > 100 µM | [8] > 100 µM | [9] > 100 µM | [12] > 100 µM | [13] > 100 µM | [17] > 100 µM | [14] > 100 µM

O=C(CN(c1ccccc1)c1ccccc1)n1nnc2ccccc21
inactive: [1] 30 µM | [2] 70.8 µM | [3] > 100 µM | [16] 24.4 µM | [4] 41.3 µM | [5] 37.2 µM | [6] 28.6 µM | [7] 30.6 µM | [8] 35 µM | [9] 53 µM | [11] 24.5 µM | [12] 34.8 µM | [13] 44.1 µM | [17] 27.5 µM | [14] 37.8 µM

O=C(O)CCSC(=O)Nc1cccc([N+](=O)[O-])c1
inactive: [1] 92.9 µM | [2] > 100 µM | [16] > 100 µM | [5] > 100 µM | [6] > 100 µM | [7] > 100 µM | [8] > 100 µM | [9] 71.1 µM | [10] > 100 µM | [11] > 100 µM | [12] > 100 µM | [13] 87.1 µM | [14] > 100 µM

CCOC(=O)C(NC(=O)c1nc[nH]c1[N+](=O)[O-])C(C)C (configuration not stated)
inactive: [1] > 100 µM | [2] 50.6 µM | [16] > 100 µM | [4] > 100 µM | [5] > 100 µM | [6] > 100 µM | [7] > 100 µM | [8] 47.2 µM | [9] > 100 µM | [10] > 100 µM | [11] > 100 µM | [12] 72.6 µM | [13] 74 µM | [17] 30.8 µM | [14] > 100 µM

COc1ccc(/C(Cl)=C(/c2ccc(O)cc2)c2ccc(OCCN(C)C)cc2)cc1
inactive: [1] 11.9 µM | [2] 12.7 µM | [3] 13.3 µM | [16] 11.5 µM | [4] 16.6 µM | [5] 4.38 µM | [6] 13.8 µM | [7] 10.4 µM | [9] 14.3 µM | [11] 14.1 µM | [12] 5.96 µM | [13] 2.13 µM | [17] 16.1 µM

O=C1CC23CCCCCCCCCCC2(C1)CC(=O)C3 (configuration not stated)
inactive: [15] 21.1 µM | [1] 40.6 µM | [2] 34.7 µM | [3] 23.2 µM | [16] 33.7 µM | [5] 38.7 µM | [6] 30 µM | [7] 19.5 µM | [8] 18.9 µM | [11] 22.9 µM | [12] 19.4 µM | [13] 18.1 µM | [17] 26.5 µM | [14] 27.5 µM

CCCN(CCC)C(=O)Cc1c2n(c3ccccc13)CCCc1ccccc1-2
inactive: [15] 4.2 µM | [1] 16.6 µM | [2] 15.6 µM | [16] 14.9 µM | [4] 11 µM | [5] 16.3 µM | [6] 13.8 µM | [7] 13.1 µM | [8] 17.4 µM | [9] 14.8 µM | [11] 14.6 µM | [12] 14.4 µM | [13] 13.2 µM | [17] 15.1 µM | [14] 12.5 µM

O=c1c(O)c(-c2ccc(O)c(O)c2)oc2cc(O)cc(O)c12 [QUERCETIN]
inactive: [1] 20.3 µM | [2] 36.6 µM | [3] > 100 µM | [16] 47.5 µM | [4] 31.2 µM | [5] 94.6 µM | [6] > 100 µM | [7] 88.5 µM | [8] 30.8 µM | [9] > 100 µM | [10] > 100 µM | [11] 61.2 µM | [14] 67.8 µM
